# Experimental data taken from patent US9833497B2, “Human originated EGF domain proteins and use of the same” (CHENGDU SOURCEBIO LIMITED-LIABILITY COMPANY, priority 2013, dated 2017).
# Key:
# Type in all cases: cell-based
# Pseudomonas aeruginosa = test: MIC against Gram-negative bacteria: Pseudomonas aeruginosa; settings: 5×10^5 CFU/mL
# Experimental: (§1) 1. Gram-negative bacteria, such as E. coli BL21, Pseudomonas aeruginosa, Klebsiella pneumonia, Enterobacter cloacae, Aeromonas hydrophila, Citrobacter diversus, Moraxella catarrhalis, Proteus mirabilis, Proteus vulgaris, Serratia marcescens, etc were streaked on solid LB medium and cultured respectively. Then, typical clones were picked, inoculated into common liquid LB medium respectively, and cultured at 37° C. with shaking at 185 rpm until the McFarland specific turbidity was 0.5. The bacterial culture of each of Gram-negative bacteria was centrifuged at 4000×g for 3 min, the supernatant was discarded, and the thalli were resuspended with fresh LB medium.
# (§2) 2. The above-mentioned bacterial suspensions were diluted and inoculated into 96-well plates with the final concentration of the bacterial suspension being 5×10^5 CFU/mL per well.
# (§3) 3. Each of the purified human-originated EGF domain proteins (PRT1 to PRT1498 in Table 1) was added to each of the above wells and subjected to two-fold serial dilution in concentration. Three parallel wells were set up for each concentration in the gradient.
# (§4) 4. The above-mentioned 96-well plates were placed and cultured at 37° C. in shaking incubator shaking at 175 rpm. […] The minimal inhibitory concentration MIC is defined as the lowest concentration of the recombinant protein at which there is no growth of the bacteria.
# Serratia marcescens = test: MIC against Gram-negative bacteria: Serratia marcescens; settings: 5×10^5 CFU/mL
# Experimental: as §1, §2, §3, §4
# Enterobacter cloacae = test: MIC against Gram-negative bacteria: Enterobacter cloacae; settings: 5×10^5 CFU/mL
# Experimental: as §1, §2, §3, §4
# Moraxella catarrhalis = test: MIC against Gram-negative bacteria: Moraxella catarrhalis; settings: 5×10^5 CFU/mL
# Experimental: as §1, §2, §3, §4
# Proteus mirabilis = test: MIC against Gram-negative bacteria: Proteus mirabilis; settings: 5×10^5 CFU/mL
# Experimental: as §1, §2, §3, §4
# Aeromonas hydrophila = test: MIC against Gram-negative bacteria: Aeromonas hydrophila; settings: 5×10^5 CFU/mL
# Experimental: as §1, §2, §3, §4
# E. coli BL21 = test: MIC against Gram-negative bacteria: E. coli BL21; settings: 5×10^5 CFU/mL
# Experimental: as §1, §2, §3, §4
# Klebsiella pneumonia = test: MIC against Gram-negative bacteria: Klebsiella pneumonia; settings: 5×10^5 CFU/mL
# Experimental: as §1, §2, §3, §4
# Citrobacter diversus = test: MIC against Gram-negative bacteria: Citrobacter diversus; settings: 5×10^5 CFU/mL
# Experimental: as §1, §2, §3, §4
# Proteus vulgaris = test: MIC against Gram-negative bacteria: Proteus vulgaris; settings: 5×10^5 CFU/mL
# Experimental: as §1, §2, §3, §4
# E. coli DH5α = test: Antibacterial activity: MIC and growth curve against E. coli DH5α in 96-well plate; settings: minimal inhibitory concentration against E. coli DH5α; 96-well plate, 5×10^5 CFU/mL, 37° C., judged after 8 h
# Experimental: 1. E. coli DH5α was exemplified. E. coli DH5α was streaked and cultured on LB solid medium. Then, a typical clone was picked and inoculated into common LB liquid medium, cultured at 37° C. with shaking at 185 rpm until the logarithmic growth phase was reached (OD600 of about 0.5). The bacterial culture was centrifuged at 4000×g for 3 min, the supernatant was discarded, and the thalli were resuspended with fresh LB medium.
# 2. The above-mentioned bacterial suspension was diluted and inoculated into a 96-well plate with the total volume of 100 μL per well and a bacterial count of 5×10^5 CFU/mL.
# 3. The recombinant protein hF VII-EGF1 was added to the above-mentioned wells with the final protein concentration in the well of the highest protein concentration being 50 μg/mL. Basing on this final concentration, a two-fold serial dilution was performed till a protein concentration gradient consisting of 50, 25, and 12.5 μg/mL was set up. Three parallel wells were set up for each concentration in the gradient.
# 4. The above-mentioned 96-well plate was placed and cultured at 37° C. in shaking incubator shaking at 175 rpm. Samples were taken every 30 min, the absorbance values were determined at 600 nm wavelength under a ultra violet spectrophotometer, and an inhibition curve was plotted. […] The minimal inhibitory concentration MIC is defined as the lowest concentration of the recombinant protein at which there is no growth of the bacteria.
# According to the experimental procedures in Example 14, the minimal inhibitory concentrations (MIC, μg/mL) of the other human-originated EGF domain proteins (PRT2 to PRT1498 in Table 1) for E. coli DH5α were determined.
# [1] = Pseudomonas aeruginosa, 96-well plate, 37° C., 10 h
# [2] = Serratia marcescens, 96-well plate, 37° C., 10 h
# [3] = Enterobacter cloacae, 96-well plate, 37° C., 10 h
# [4] = Moraxella catarrhalis, 96-well plate, 37° C., 10 h
# [5] = Proteus mirabilis, 96-well plate, 37° C., 10 h
# [6] = Aeromonas hydrophila, 96-well plate, 37° C., 10 h
# [7] = Klebsiella pneumonia, 96-well plate, 37° C., 10 h
# [8] = Citrobacter diversus, 96-well plate, 37° C., 10 h
# [9] = Proteus vulgaris, 96-well plate, 37° C., 10 h
# [10] = 10 h cultivation at 37° C., two-fold serial dilution
substance,measurement,setting,value
PRT1311 (LLDPCSKNNGGCSPYATCKSTGDGQRTCTCDTAHTVGDGLTCR; listed as Homo sapiens),MIC against P. aeruginosa,Pseudomonas aeruginosa; [1],12.5 µg/mL
same,MIC against S. marcescens,Serratia marcescens; [2],25 µg/mL
same,MIC against E. cloacae,Enterobacter cloacae; [3],50 µg/mL
same,MIC against M. catarrhalis,Moraxella catarrhalis; [4],25 µg/mL
same,MIC against P. mirabilis,Proteus mirabilis; [5],12.5 µg/mL
same,MIC against A. hydrophila,Aeromonas hydrophila; [6],12.5 µg/mL
same,MIC against E. coli BL21,"E. coli BL21; 96-well plate, 37° C., 10 h",25 µg/mL
same,MIC against K. pneumonia,Klebsiella pneumonia; [7],25 µg/mL
same,MIC against C. diversus,Citrobacter diversus; [8],50 µg/mL
same,MIC against P. vulgaris,Proteus vulgaris; [9],25 µg/mL
same,MIC,E. coli DH5α,50 µg/mL
PRT73 (TNGQCQCKENYYKLLAQDTCLPCDCFPHGSHSRTCD; listed as Homo sapiens),MIC (μg/mL) P. aeruginosa,Pseudomonas aeruginosa; [1],25 µg/mL
same,MIC (μg/mL) S. marcescens,Serratia marcescens; [2],12.5 µg/mL
same,MIC (μg/mL) E. cloacae,Enterobacter cloacae; [3],25 µg/mL
same,MIC (μg/mL) M. catarrhalis,Moraxella catarrhalis; [4],50 µg/mL
same,MIC (μg/mL) P. mirabilis,Proteus mirabilis; [5],12.5 µg/mL
same,MIC (μg/mL) A. hydrophila,Aeromonas hydrophila; [6],50 µg/mL
same,MIC (μg/mL) E. coli BL21,"E. coli BL21; 96-well plate, 37° C., 10 h",50 µg/mL
same,MIC (μg/mL) K. pneumonia,Klebsiella pneumonia; [7],100 µg/mL
same,MIC (μg/mL) C. diversus,Citrobacter diversus; [8],12.5 µg/mL
same,MIC (μg/mL) P. vulgaris,Proteus vulgaris; [9],50 µg/mL
same,MIC,E. coli DH5α,25 µg/mL
PRT173 (CSSSPCSNGAKCVDLGDAYLCRCQAGFSGRHC; listed as Homo sapiens),MIC (μg/mL) P. aeruginosa,"Pseudomonas aeruginosa; P. aeruginosa, 10 h cultivation at 37° C.",12.5 µg/mL
same,MIC (μg/mL) S. marcescens,"Serratia marcescens; S. marcescens, 10 h cultivation at 37° C.",25 µg/mL
same,MIC (μg/mL) E. cloacae,"Enterobacter cloacae; E. cloacae, 10 h cultivation at 37° C.",25 µg/mL
same,MIC (μg/mL) M. catarrhalis,"Moraxella catarrhalis; M. catarrhalis, 10 h cultivation at 37° C.",50 µg/mL
same,MIC (μg/mL) P. mirabilis,"Proteus mirabilis; P. mirabilis, 10 h cultivation at 37° C.",25 µg/mL
same,MIC (μg/mL) A. hydrophila,"Aeromonas hydrophila; A. hydrophila, 10 h cultivation at 37° C.",12.5 µg/mL
same,MIC (μg/mL) E. coli BL21,E. coli BL21; 10 h cultivation at 37° C.,50 µg/mL
same,MIC (μg/mL) K. pneumonia,"Klebsiella pneumonia; K. pneumonia, 10 h cultivation at 37° C.",50 µg/mL
same,MIC (μg/mL) C. diversus,"Citrobacter diversus; C. diversus, 10 h cultivation at 37° C.",25 µg/mL
same,MIC (μg/mL) P. vulgaris,"Proteus vulgaris; P. vulgaris, 10 h cultivation at 37° C.",12.5 µg/mL
same,MIC,E. coli DH5α,12.5 µg/mL
PRT1122 (DVDECLSDPCLHGGTCSDTVAGYICRCPETWGGRDCS; listed as Homo sapiens),MIC P. aeruginosa,Pseudomonas aeruginosa; [10],50 µg/mL
same,MIC S. marcescens,Serratia marcescens; [10],12.5 µg/mL
same,MIC E. cloacae,Enterobacter cloacae; [10],50 µg/mL
same,MIC M. catarrhalis,Moraxella catarrhalis; [10],50 µg/mL
same,MIC P. mirabilis,Proteus mirabilis; [10],12.5 µg/mL
same,MIC A. hydrophila,Aeromonas hydrophila; [10],25 µg/mL
same,MIC E. coli BL21,E. coli BL21; [10],12.5 µg/mL
same,MIC K. pneumonia,Klebsiella pneumonia; [10],12.5 µg/mL
same,MIC C. diversus,Citrobacter diversus; [10],12.5 µg/mL
same,MIC P. vulgaris,Proteus vulgaris; [10],50 µg/mL
same,MIC,E. coli DH5α,50 µg/mL
PRT732 (SVNPCAFSRCSHLCLLSSQGPHFYSCVCPSGWSLSPDLLNCL; listed as Homo sapiens),MIC P. aeruginosa,"Pseudomonas aeruginosa; 96-well plate, 37° C., 10 h",12.5 µg/mL
same,MIC S. marcescens,"Serratia marcescens; 96-well plate, 37° C., 10 h",12.5 µg/mL
same,MIC E. cloacae,"Enterobacter cloacae; 96-well plate, 37° C., 10 h",25 µg/mL
same,MIC M. catarrhalis,"Moraxella catarrhalis; 96-well plate, 37° C., 10 h",50 µg/mL
same,MIC P. mirabilis,"Proteus mirabilis; 96-well plate, 37° C., 10 h",25 µg/mL
same,MIC A. hydrophila,"Aeromonas hydrophila; 96-well plate, 37° C., 10 h",12.5 µg/mL
same,MIC E. coli BL21,"E. coli BL21; 96-well plate, 37° C., 10 h",50 µg/mL
same,MIC K. pneumonia,"Klebsiella pneumonia; 96-well plate, 37° C., 10 h",50 µg/mL
same,MIC C. diversus,"Citrobacter diversus; 96-well plate, 37° C., 10 h",25 µg/mL
same,MIC P. vulgaris,"Proteus vulgaris; 96-well plate, 37° C., 10 h",25 µg/mL
same,MIC,E. coli DH5α,12.5 µg/mL
PRT1411 (SVDNCPSNCYGNGDCISGTCHCFLGFLGPDCG; listed as Homo sapiens),MIC against P. aeruginosa,"Pseudomonas aeruginosa; Pseudomonas aeruginosa, 10 h cultivation at 37° C.",12.5 µg/mL
same,MIC against S. marcescens,"Serratia marcescens; Serratia marcescens, 10 h cultivation at 37° C.",12.5 µg/mL
same,MIC against E. cloacae,"Enterobacter cloacae; Enterobacter cloacae, 10 h cultivation at 37° C.",12.5 µg/mL
same,MIC against M. catarrhalis,"Moraxella catarrhalis; Moraxella catarrhalis, 10 h cultivation at 37° C.",12.5 µg/mL
same,MIC against P. mirabilis,"Proteus mirabilis; Proteus mirabilis, 10 h cultivation at 37° C.",12.5 µg/mL
same,MIC against A. hydrophila,"Aeromonas hydrophila; Aeromonas hydrophila, 10 h cultivation at 37° C.",12.5 µg/mL
same,MIC against E. coli BL21,E. coli BL21; 10 h cultivation at 37° C.,25 µg/mL
same,MIC against K. pneumonia,"Klebsiella pneumonia; Klebsiella pneumonia, 10 h cultivation at 37° C.",25 µg/mL
same,MIC against C. diversus,"Citrobacter diversus; Citrobacter diversus, 10 h cultivation at 37° C.",12.5 µg/mL
same,MIC against P. vulgaris,"Proteus vulgaris; Proteus vulgaris, 10 h cultivation at 37° C.",25 µg/mL
same,MIC,E. coli DH5α,12.5 µg/mL
PRT20 (QKNLCNNTGDPEMCPENGSCVPDGPGLLQCVCADGFHGYKCM; listed as Homo sapiens),MIC (μg/mL) P. aeruginosa,Pseudomonas aeruginosa; [1],50 µg/mL
same,MIC (μg/mL) S. marcescens,Serratia marcescens; [2],12.5 µg/mL
same,MIC (μg/mL) E. cloacae,Enterobacter cloacae; [3],12.5 µg/mL
same,MIC (μg/mL) M. catarrhalis,Moraxella catarrhalis; [4],12.5 µg/mL
same,MIC (μg/mL) P. mirabilis,Proteus mirabilis; [5],50 µg/mL
same,MIC (μg/mL) A. hydrophila,Aeromonas hydrophila; [6],50 µg/mL
same,MIC (μg/mL) E. coli BL21,"E. coli BL21; 96-well plate, 37° C., 10 h",25 µg/mL
same,MIC (μg/mL) K. pneumonia,Klebsiella pneumonia; [7],25 µg/mL
same,MIC (μg/mL) C. diversus,Citrobacter diversus; [8],25 µg/mL
same,MIC (μg/mL) P. vulgaris,Proteus vulgaris; [9],25 µg/mL
same,MIC,E. coli DH5α,12.5 µg/mL
PRT118 (DVDECVGPGGPLCDSLCFNTQGSFHCGCLPGWVLAPNGVSCT; listed as Homo sapiens),MIC (μg/mL) P. aeruginosa,Pseudomonas aeruginosa; [1],12.5 µg/mL
same,MIC (μg/mL) S. marcescens,Serratia marcescens; [2],12.5 µg/mL
same,MIC (μg/mL) E. cloacae,Enterobacter cloacae; [3],12.5 µg/mL
same,MIC (μg/mL) M. catarrhalis,Moraxella catarrhalis; [4],25 µg/mL
same,MIC (μg/mL) P. mirabilis,Proteus mirabilis; [5],12.5 µg/mL
same,MIC (μg/mL) A. hydrophila,Aeromonas hydrophila; [6],12.5 µg/mL
same,MIC (μg/mL) E. coli BL21,"E. coli BL21; 96-well plate, 37° C., 10 h",12.5 µg/mL
same,MIC (μg/mL) K. pneumonia,Klebsiella pneumonia; [7],12.5 µg/mL
same,MIC (μg/mL) C. diversus,Citrobacter diversus; [8],12.5 µg/mL
same,MIC (μg/mL) P. vulgaris,Proteus vulgaris; [9],25 µg/mL
same,MIC,E. coli DH5α,12.5 µg/mL
